The record followed here is PubChem BioAssay AID248 (DTP/NCI, 2004).

In this assay the test system is L1210 leukemia ip in BDF1 mice, survival T/C. Briefly: NCI In Vivo Anticancer Drug Screen. Data for tumor model L1210 Leukemia (intraperitoneal) in B6D2F1 (BDF1) mice. Particulars: endpoint: mean survival time, higher = longer survival. The essentials: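 Transplanted-tumor mice were given test agent; controls received vehicle only. Survival readings from the two groups were divided (treated over control).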

[1] abbreviates: dose: 100.0 mg/kg/injection, schedule: Q01DX001 (ip), vehicle: saline.
Where [2] appears, read: dose: 200.0 mg/kg/injection, schedule: Q01DX001 (ip), vehicle: saline.
[3] abbreviates: dose: 100.0 mg/kg/injection, schedule: Q04DX003 (ip), vehicle: saline.
The mark [4] stands for this setting: dose: 100.0 mg/kg/injection, schedule: Q01DX009 (ip), vehicle: Klucel (hydroxypropylcellulose) (HPC).
The mark [5] stands for this setting: dose: 200.0 mg/kg/injection, schedule: Q01DX009 (ip), vehicle: Klucel (hydroxypropylcellulose) (HPC).
[6] abbreviates: dose: 200.0 mg/kg/injection, schedule: Q04DX003 (ip), vehicle: saline.
[7] abbreviates: dose: 400.0 mg/kg/injection, schedule: Q01DX009 (ip), vehicle: Klucel (hydroxypropylcellulose) (HPC).
[8] abbreviates: dose: 400.0 mg/kg/injection, schedule: Q04DX003 (ip), vehicle: saline.
The mark [9] stands for this setting: dose: 400.0 mg/kg/injection, schedule: Q01DX001 (ip), vehicle: saline.
The mark [10] stands for this setting: dose: 100.0 mg/kg/injection, schedule: Q04DX002 (ip), vehicle: Klucel (hydroxypropylcellulose) (HPC).
[11] abbreviates: dose: 200.0 mg/kg/injection, schedule: Q04DX002 (ip), vehicle: Klucel (hydroxypropylcellulose) (HPC).
Setting [12] is: dose: 400.0 mg/kg/injection, schedule: Q04DX002 (ip), vehicle: Klucel (hydroxypropylcellulose) (HPC).

“And” between values parts separate entries of the source, which are not always exact repeats. Identical values can stand only once. Inconclusive results and toxic doses are left out.

With `O=NN(CCF)C(=O)NCCF`, the T/C (dose: 1.25 mg/kg/injection, schedule: Q01DX001 (ip), vehicle: saline) is 113 % of control; the T/C (dose: 1.75 mg/kg/injection, schedule: Q01DX001 (ip), vehicle: saline) is 118 % of control; the T/C (dose: 2.0 mg/kg/injection, schedule: Q01DX001 (ip), vehicle: saline) is 116 % of control; the T/C (dose: 2.5 mg/kg/injection, schedule: Q01DX001 (ip), vehicle: saline) is 118 % of control; the T/C (dose: 3.5 mg/kg/injection, schedule: Q01DX001 (ip), vehicle: saline) was 161 % of control; the T/C (dose: 5.0 mg/kg/injection, schedule: Q01DX001 (ip), vehicle: saline) was 156 % of control. The T/C is 242 % of control (dose: 6.0 mg/kg/injection, schedule: Q01DX001 (ip), vehicle: saline); 316 % of control (dose: 7.0 mg/kg/injection, schedule: Q01DX001 (ip), vehicle: saline); 201 % of control (dose: 8.0 mg/kg/injection, schedule: Q01DX001 (ip), vehicle: saline); 312 % of control and 333 % of control (dose: 12.0 mg/kg/injection, schedule: Q01DX001 (ip), vehicle: saline); 322 % of control (dose: 18.0 mg/kg/injection, schedule: Q01DX001 (ip), vehicle: saline).

As to `CCn1ncc2ccccc2c1=O`, the T/C is 96 % of control under setting [1] and 97 % of control under setting [2].

For the compound `O=[N+]([O-])CC(NNC(C[N+](=O)[O-])C(Cl)(Cl)Cl)C(Cl)(Cl)Cl` (stereo unspecified), the T/C runs as follows: (dose: 100.0 mg/kg/injection, schedule: Q01DX009 (ip), vehicle: saline with Tween-80) 96 % of control; (dose: 100.0 mg/kg/injection, schedule: Q04DX003 (ip), vehicle: saline with Tween-80) 89 % of control; (dose: 200.0 mg/kg/injection, schedule: Q01DX009 (ip), vehicle: saline with Tween-80) 91 % of control; (dose: 200.0 mg/kg/injection, schedule: Q04DX003 (ip), vehicle: saline with Tween-80) 94 % of control; (dose: 400.0 mg/kg/injection, schedule: Q04DX003 (ip), vehicle: saline with Tween-80) 90 % of control.

On to `Nc1nc2nc(CC(=O)C(=O)O)c(=O)[nH]c2c(=O)[nH]1`, for which the T/C runs as follows: (dose: 3.12 mg/kg/injection, schedule: Q01DX009 (ip), vehicle: saline with Tween-80) 97 % of control; (dose: 6.25 mg/kg/injection, schedule: Q01DX009 (ip), vehicle: saline with Tween-80) 101 % of control; (dose: 12.5 mg/kg/injection, schedule: Q01DX009 (ip), vehicle: saline with Tween-80) 103 % of control; (dose: 12.5 mg/kg/injection, schedule: Q04DX003 (ip), vehicle: saline) 105 % of control; (dose: 25.0 mg/kg/injection, schedule: Q04DX003 (ip), vehicle: saline) 111 % of control; (dose: 50.0 mg/kg/injection, schedule: Q01DX009 (ip), vehicle: saline) 97 % of control. Further, the T/C (dose: 50.0 mg/kg/injection, schedule: Q04DX003 (ip), vehicle: saline) is 104 % of control and the T/C under setting [3] was 106 % of control.

For `CC(C)(C)C1CCC(S(=O)(=O)c2ccccc2)C(Cl)C1` (stereo unspecified), the T/C reads like this: under setting [4], 102 % of control; under setting [3], 102 % of control; under setting [5], 104 % of control; under setting [6], 96 % of control; under setting [7], 104 % of control; under setting [8], 93 % of control.

For the compound `CN(C)CCNc1cc([N+](=O)[O-])ccc1[N+](=O)[O-]`, under setting [1], the T/C was 105 % of control.

Consider `COc1ccccc1-n1c(O)c(N=Nc2ccccc2C)c(=O)n(-c2ccc(C)cc2)c1=S`, for which the T/C runs as follows: (dose: 37.5 mg/kg/injection, schedule: Q01DX001 (ip), vehicle: Klucel (hydroxypropylcellulose) (HPC)) 102 % of control; (dose: 75.0 mg/kg/injection, schedule: Q01DX001 (ip), vehicle: Klucel (hydroxypropylcellulose) (HPC)) 99 % of control; (dose: 150.0 mg/kg/injection, schedule: Q01DX001 (ip), vehicle: Klucel (hydroxypropylcellulose) (HPC)) 89 % of control.

As to `Nc1nc(SCc2ccccc2)c2ncn(C3CC(O)C(CO)O3)c2n1` (stereo unspecified), the T/C reads like this: (dose: 7.0 mg/kg/injection, schedule: Q01DX015 (ip), vehicle: saline) 118 % of control; (dose: 12.0 mg/kg/injection, schedule: Q01DX015 (ip), vehicle: saline) 168 % of control; (dose: 20.0 mg/kg/injection, schedule: Q01DX015 (ip), vehicle: saline) 172 % of control; (dose: 34.0 mg/kg/injection, schedule: Q01DX015 (ip), vehicle: saline) 153 % of control; (dose: 100.0 mg/kg/injection, schedule: Q01DX005 (ip), vehicle: saline) 97 % of control; (dose: 200.0 mg/kg/injection, schedule: Q01DX005 (ip), vehicle: saline) 113 % of control. Besides, the T/C under setting [9] was 157 % of control.

On to `Cc1cc(F)ccc1OCC(=O)Oc1ccc([N+](=O)[O-])cc1`, for which the T/C reads like this: under setting [10], 108 % of control; under setting [11], 101 % of control; under setting [12], 111 % of control.

In the case of `COc1ccccc1NCc1cccc([N+](=O)[O-])c1`, the T/C by setting is: under setting [4], 100 % of control; under setting [3], 100 % of control; under setting [5], 94 % of control; under setting [6], 94 % of control; under setting [8], 86 % of control.

With `OCC1OC(n2cnc3c(SCc4ccccn4)ncnc32)C(O)C1O` (stereo unspecified), the T/C is 101 % of control under setting [1], 113 % of control under setting [2] and 115 % of control under setting [9].

Consider `NCCB(O)O`, for which the T/C was 95 % of control under setting [3], 93 % of control under setting [6] and 98 % of control under setting [8].

Regarding `COC1(OC)C2(Cl)C=CC1(Cl)C1CC12` (stereo unspecified), the T/C under setting [10] was 97 % of control, the T/C under setting [11] was 107 % of control and the T/C under setting [12] was 100 % of control.

Consider `Cc1nnc(C)n1N`, for which the T/C is, setting by setting: under setting [1], 106 % of control; under setting [2], 106 % of control; under setting [9], 95 % of control.

As for `COc1cccc(OC)c1CCCl`, the T/C reads like this: under setting [3], 95 % of control; under setting [6], 97 % of control; under setting [8], 110 % of control.

For `O=C(O)CCSCc1cc(=O)[nH]c(=O)[nH]1`, the T/C by setting is: under setting [3], 96 % of control; under setting [6], 98 % of control; under setting [8], 96 % of control.

Consider `CC(=O)C(C)C(O)c1ccc([N+](=O)[O-])cc1` (stereo unspecified), for which the T/C reads like this: under setting [4], 91 % of control; (dose: 100.0 mg/kg/injection, schedule: Q04DX003 (ip), vehicle: Klucel (hydroxypropylcellulose) (HPC)) 100 % of control; under setting [5], 91 % of control; (dose: 200.0 mg/kg/injection, schedule: Q04DX003 (ip), vehicle: Klucel (hydroxypropylcellulose) (HPC)) 98 % of control; under setting [7], 92 % of control; (dose: 400.0 mg/kg/injection, schedule: Q04DX003 (ip), vehicle: Klucel (hydroxypropylcellulose) (HPC)) 98 % of control.

For `O=C(C(=Nc1ccc(Br)cc1)C(Nc1ccc(Br)cc1)C(=O)c1ccccc1)c1ccccc1` (stereo unspecified), the T/C under setting [1] is 96 % of control, the T/C under setting [2] was 91 % of control and the T/C under setting [9] was 94 % of control.

For `CCCCCOC(=O)c1ccccc1C(=O)OCCCCC`, the T/C was 103 % of control (dose: 50.0 mg/kg/injection, schedule: Q01DX001 (ip), vehicle: Klucel (hydroxypropylcellulose) (HPC)); 110 % of control (dose: 100.0 mg/kg/injection, schedule: Q01DX001 (ip), vehicle: Klucel (hydroxypropylcellulose) (HPC)); 104 % of control (dose: 200.0 mg/kg/injection, schedule: Q01DX001 (ip), vehicle: Klucel (hydroxypropylcellulose) (HPC)).
